Reference: ChEMBL document CHEMBL5046300, “Potent Bactericidal Antimycobacterials Targeting the Chaperone ClpC1 Based on the Depsipeptide Natural Products Ecumicin and Ohmyungsamycin A” (2022)
≈ marks a conversion by molar mass, not a printed value. Calls of active or inactive are those of the source. No cut-off for these calls is given here. *1 amine or outer side, *2 acyl side, *3 side chain or, on linkers, in order; H or OH if unused. Where a SMILES comes first, the peptide text is derived from it. Bridges are numbered along the chain shown (N, C = ends). [ ]: non-standard residue; d: D form. The star is where a group is joined. Phe(3R-OH) = O=C([C@@H](N[*:1])[C@H](O[*:3])c1ccccc1)[*:2]; NMeTrp(4-OMe) = CN[C@@H](Cc1c[nH]c2cccc(OC)c12)C(=O)O; NMeW = CN[C@@H](Cc1c[nH]c2ccccc12)C(=O)O; NMeaIle = CC[C@@H](C)[C@H](NC)C(=O)O; NMe2Val = CC(C)[C@@H](C(=O)*)N(C)C; NMeT = CN[C@H](C(=O)O)[C@@H](C)O; NMeL = CN[C@@H](CC(C)C)C(=O)O; NMeV = CN[C@H](C(=O)O)C(C)C

What was measured:
[1] = system: Mycobacterium tuberculosis; assay: Antimycobacterial activity against Mycobacterium tuberculosis mc2 6230 assessed as log reduction in bacteria measured up to 21 days by Time kill assay; assay type: functional, organism-based; conditions: time day <=21
[2] = system: Mycobacterium tuberculosis; assay: Antimycobacterial activity against Mycobacterium tuberculosis mc2 6230 measured after 7 days; assay type: functional; conditions: mc2 6230, 168 h, time 7 day
[3] = system: Mycobacterium tuberculosis; assay: Antimycobacterial activity against Mycobacterium tuberculosis H37Rv infected in human THP-1 cells assessed as log reduction in bacterial growth at 10 uM incubated for 3 to 4 weeks by intracellular killing assay; assay type: functional; conditions: time 3-4 weeks
[4] = system: Pseudomonas aeruginosa; assay: Antibacterial activity against Pseudomonas aeruginosa ATCC 27853 assessed as bacterial growth inhibition incubated for 18 to 20 hrs by broth microdilution method; assay type: functional; conditions: time 18-20 hrs
[5] = system: Escherichia coli; assay: Antibacterial activity against Escherichia coli K-12 MG1655 assessed as bacterial growth inhibition incubated for 18 to 20 hrs by broth microdilution method; assay type: functional; conditions: time 18-20 hrs
[6] = system: Enterococcus faecalis; assay: Antibacterial activity against Enterococcus faecalis ATCC 29212 assessed as bacterial growth inhibition incubated for 18 to 20 hrs by broth microdilution method; assay type: functional; conditions: time 18-20 hrs
[7] = system: Brucella anthropi; assay: Antibacterial activity against Ochrobactrum anthropi ATCC 49687 assessed as bacterial growth inhibition incubated for 18 to 20 hrs by broth microdilution method; assay type: functional; conditions: time 18-20 hrs
[8] = system: Bacillus subtilis; assay: Antibacterial activity against Bacillus subtilis ATCC 6051 assessed as bacterial growth inhibition incubated for 18 to 20 hrs by broth microdilution method; assay type: functional; conditions: time 18-20 hrs
[9] = system: Salmonella enterica; assay: Antibacterial activity against Salmonella enterica ATCC 13311 assessed as bacterial growth inhibition incubated for 18 to 20 hrs by broth microdilution method; assay type: functional; conditions: time 18-20 hrs
[10] = system: Mycobacterium marinum; assay: Antimycobacterial activity against Mycobacterium marinum infected in zebrafish assessed as reduction in bacterial burden at 10 uM after 6 days post infection; assay type: functional; set-up: scale not given: the % may be the effect or the level left; conditions: time 6 day
[11] = system: Yersinia pseudotuberculosis; assay: Antibacterial activity against Yersinia pseudotuberculosis ATCC 6904 assessed as bacterial growth inhibition incubated for 18 to 20 hrs by broth microdilution method; assay type: functional; conditions: time 18-20 hrs
[12] = system: Vibrio cholerae; assay: Antibacterial activity against Vibrio cholerae A1552 El Tor assessed as bacterial growth inhibition incubated for 18 to 20 hrs by broth microdilution method; assay type: functional; conditions: time 18-20 hrs
[13] = system: Shigella sonnei; assay: Antibacterial activity against Shigella sonnei ATCC 25931 assessed as bacterial growth inhibition incubated for 18 to 20 hrs by broth microdilution method; assay type: functional; conditions: time 18-20 hrs
[14] = system: Providencia alcalifaciens; assay: Antibacterial activity against Providencia alcalifaciens ATCC 9886 assessed as bacterial growth inhibition incubated for 18 to 20 hrs by broth microdilution method; assay type: functional; conditions: time 18-20 hrs
[15] = system: Staphylococcus epidermidis; assay: Antibacterial activity against Staphylococcus epidermidis ATCC 14990 assessed as bacterial growth inhibition incubated for 18 to 20 hrs by broth microdilution method; assay type: functional; conditions: time 18-20 hrs
[16] = system: Acinetobacter baumannii; assay: Antibacterial activity against Acinetobacter baumannii ATCC 19606 assessed as bacterial growth inhibition incubated for 18 to 20 hrs by broth microdilution method; assay type: functional; conditions: time 18-20 hrs
[17] = system: Streptococcus pneumoniae; assay: Antibacterial activity against Streptococcus pneumoniae ATCC 49619 assessed as bacterial growth inhibition incubated for 18 to 20 hrs by broth microdilution method; assay type: functional; conditions: time 18-20 hrs
[18] = system: Enterococcus faecium; assay: Antibacterial activity against Enterococcus faecium ATCC 6569 assessed as bacterial growth inhibition incubated for 18 to 20 hrs by broth microdilution method; assay type: functional; conditions: time 18-20 hrs
[19] = system: Listeria ivanovii; assay: Antibacterial activity against Listeria ivanovii BAA-139 assessed as bacterial growth inhibition incubated for 18 to 20 hrs by broth microdilution method; assay type: functional; conditions: time 18-20 hrs
[20] = system: Staphylococcus aureus; assay: Antibacterial activity against methicillin-sensitive Staphylococcus aureus ATCC 29213 assessed as bacterial growth inhibition incubated for 18 to 20 hrs by broth microdilution method; assay type: functional; conditions: time 18-20 hrs
[21] = system: Staphylococcus aureus; assay: Antibacterial activity against methicillin-resistant Staphylococcus aureus BAA-44 assessed as bacterial growth inhibition incubated for 18 to 20 hrs by broth microdilution method; assay type: functional; conditions: time 18-20 hrs
[22] = system: Klebsiella pneumoniae; assay: Antibacterial activity against Klebsiella pneumoniae ATCC 700603 assessed as bacterial growth inhibition incubated for 18 to 20 hrs by broth microdilution method; assay type: functional; conditions: time 18-20 hrs
[23] = system: Klebsiella aerogenes; assay: Antibacterial activity against Klebsiella aerogenes ATCC 35029 assessed as bacterial growth inhibition incubated for 18 to 20 hrs by broth microdilution method; assay type: functional; conditions: time 18-20 hrs

Compound | MIC [2] | Activity [3] | MIC [4] | MIC [5] | MIC [6] | MIC [7] | MIC [8] | MIC [9] | MIC [11] | MIC [12] | MIC [13] | MIC [14] | MIC [15] | MIC [16] | MIC [17] | MIC [18] | MIC [19] | MIC [20] | MIC [21] | MIC [22] | further results
CN[C@H](C(=O)N[C@H](C(=O)N[C@@H]1C(=O)N(C)[C@@H]([C@@H](C)O)C(=O)N[C@@H](C(C)C)C(=O)N(C)[C@@H](CC(C)C)C(=O)N[C@@H](C(C)C)C(=O)N(C)[C@@H](C(C)C)C(=O)N(C)[C@@H](Cc2c[nH]c3ccccc23)C(=O)N[C@@H](C(C)C)C(=O)N[C@@H](Cc2ccccc2)C(=O)N[C@@H](C(C)C)C(=O)O[C@@H]1C)C(C)C)C(C)C (H-[NMeV]VT[NMeT]V[NMeL]V[NMeV][NMeW]VFV; ester 3-C) | 0.25 µM (≈ 0.353 µg/mL) | – | – | – | – | – | – | – | – | – | – | – | – | – | – | – | – | – | – | – | Activity [1]: Active
CC[C@@H](C)[C@@H](C(=O)N[C@@H]1C(=O)N(C)[C@@H]([C@@H](C)O)C(=O)N[C@@H](C(C)C)C(=O)N(C)[C@@H](CC(C)C)C(=O)N[C@@H](C(C)C)C(=O)N(C)[C@@H](C(C)C)C(=O)N(C)[C@@H](Cc2c[nH]c3cccc(OC)c23)C(=O)N[C@@H](C(C)C)C(=O)N[C@@H]([C@H](O)c2ccccc2)C(=O)N[C@@H](C(C)C)C(=O)O[C@@H]1C)N(C)C(=O)[C@@H](NC(=O)[C@H](C(C)C)N(C)C)C(C)C (NMe2Val-V[NMeaIle]T[NMeT]V[NMeL]V[NMeV][NMeTrp(4-OMe)]V[Phe(3R-OH)]V; ester 3-C) | 1 µM (≈ 1.6 µg/mL) | 1 log10CFU/ml | – | – | – | – | – | – | – | – | – | – | – | – | – | – | – | – | – | – | –
CO[C@H]1/C=C/O[C@@]2(C)Oc3c(C)c(O)c4c(O)c(c(/C=N/N5CCN(C)CC5)c(O)c4c3C2=O)NC(=O)/C(C)=C\C=C\[C@H](C)[C@H](O)[C@@H](C)[C@@H](O)[C@@H](C)[C@H](OC(C)=O)[C@@H]1C [RIFAMPIN] | – | 1 log10CFU/ml | 53 µM (≈ 43.6 µg/mL) | 4 µM (≈ 3.29 µg/mL) | 1 µM (≈ 0.823 µg/mL) | 4 µM (≈ 3.29 µg/mL) | 4 µM (≈ 3.29 µg/mL) | 2 µM (≈ 1.65 µg/mL) | 11 µM (≈ 9.05 µg/mL) | 128 µM (≈ 105 µg/mL) | 1.7 µM (≈ 1.4 µg/mL) | 8 µM (≈ 6.58 µg/mL) | 0.02 µM (≈ 0.0165 µg/mL) | 1 µM (≈ 0.823 µg/mL) | 0.11 µM (≈ 0.0905 µg/mL) | 21 µM (≈ 17.3 µg/mL) | 0.19 µM (≈ 0.156 µg/mL) | 0.02 µM (≈ 0.0165 µg/mL) | 0.01 µM (≈ 0.00823 µg/mL) | 16 µM (≈ 13.2 µg/mL) | Activity [10]: 27%; MIC [23]: 8 µM (≈ 6.58 µg/mL)
CN[C@@H]1[C@H](O[C@H]2[C@H](O[C@H]3[C@H](O)[C@@H](O)[C@H](N=C(N)N)[C@@H](O)[C@@H]3N=C(N)N)O[C@@H](C)[C@]2(O)C=O)O[C@@H](CO)[C@H](O)[C@H]1O [STREPTOMYCIN] | – | – | 16 µM (≈ 9.31 µg/mL) | 0.25 µM (≈ 0.145 µg/mL) | 128 µM (≈ 74.4 µg/mL) | 128 µM (≈ 74.4 µg/mL) | 128 µM (≈ 74.4 µg/mL) | 0.33 µM (≈ 0.192 µg/mL) | 6.7 µM (≈ 3.9 µg/mL) | 13 µM (≈ 7.56 µg/mL) | 0.25 µM (≈ 0.145 µg/mL) | 9.3 µM (≈ 5.41 µg/mL) | 2.7 µM (≈ 1.57 µg/mL) | 128 µM (≈ 74.4 µg/mL) | 48 µM (≈ 27.9 µg/mL) | 16 µM (≈ 9.31 µg/mL) | 4 µM (≈ 2.33 µg/mL) | 2.7 µM (≈ 1.57 µg/mL) | 9.3 µM (≈ 5.41 µg/mL) | 0.17 µM (≈ 0.0989 µg/mL) | MIC [23]: 0.25 µM (≈ 0.145 µg/mL)
